# According to US8022091B2, “Triazole derivative” (Taisho Pharmaceutical Co., Ltd., priority 2006, dated 2011):
# Columns and labels:
# human Edg-1 (S1P1) = molecular target: T1, human Edg-1 (S1P1) (Homo sapiens, UniProt P21453); assay: S1P1 binding assay: inhibition of [33P]-S1P binding to membrane fraction of HEK-293 cells transferred with the human Edg-1 (S1P1) gene; conditions: for IC50: [33P]-S1P 0.1 nM, human Edg-1 (S1P1) HEK-293 membrane fraction, 1 h at 30° C., read-out: IC50 (concentration at which binding in the absence of the test compound was inhibited by 50%)
# T1 construct: expressed in transfected cells; host or cells: HEK-293
# In short: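 With 0.1 nM [33P]-S1P and compound (10^−5M single point, or a concentration range for IC50) in 0.1% DMSO, membrane fractions from human Edg-1-expressing HEK-293 cells were treated for one hour at 30° C in 20 mM Tris-HCl pH 7.4 with NaF, deoxypyridoxine and BSA. Bound label was measured after filtration, with untransfected-cell background subtracted.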
# [1] = test compound at 10 μM, inhibition of [33P]-S1P binding to the membrane fraction of HEK-293 cells expressing human Edg-1 (S1P1)
# [2] = test compound 10 μM, inhibition of [33P]-S1P binding, membrane fraction
# T1 sequence (P21453 whole entry): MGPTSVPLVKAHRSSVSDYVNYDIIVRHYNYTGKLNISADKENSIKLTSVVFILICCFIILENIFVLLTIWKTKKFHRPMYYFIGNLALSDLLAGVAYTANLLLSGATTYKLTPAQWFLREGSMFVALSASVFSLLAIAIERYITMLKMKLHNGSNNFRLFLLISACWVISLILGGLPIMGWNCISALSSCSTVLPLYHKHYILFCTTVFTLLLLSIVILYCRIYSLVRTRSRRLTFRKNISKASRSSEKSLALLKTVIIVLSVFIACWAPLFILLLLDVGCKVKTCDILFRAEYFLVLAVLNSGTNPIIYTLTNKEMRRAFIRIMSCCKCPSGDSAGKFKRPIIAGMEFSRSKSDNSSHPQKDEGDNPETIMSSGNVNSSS
SMILES,melting point,inhibition at 10 µM (human Edg-1 (S1P1); [1]),IC50 (human Edg-1 (S1P1)),inhibition at 10 µM (human Edg-1 (S1P1); [2])
CCn1c(Oc2ccc(Cl)cc2)nnc1[C@@H](C)NS(=O)(=O)c1ccc2c(Cl)cccc2c1 [Compound 139],174 to 177 °C,101%,≤ 10 nM,–
CCn1c(Oc2ccc(OC)cc2)nnc1[C@@H](C)NS(=O)(=O)c1ccc2ccccc2c1 [Compound 140],110 to 119 °C,102%,≤ 10 nM,–
CCn1c(Oc2ccc(Cl)cc2)nnc1[C@@H](C)NS(=O)(=O)c1ccc2ccccc2c1 [Compound 141],169 to 173 °C,105%,≤ 35 nM,–
CCn1c(Oc2cccc(N3CCN(C)CC3)c2)nnc1[C@@H](C)NS(=O)(=O)c1ccc(Cl)c(Cl)c1Cl [Compound 143],144 to 145 °C,99.9%,7.3 nM,–
CCn1c(Oc2cccc(N3CCN(C)CC3)c2)nnc1[C@@H](C)NS(=O)(=O)c1cc2ccccc2s1 [Compound 144],187 to 188 °C,99.4%,7.9 nM,–
CCn1c(Oc2cccc(N3CCN(C)CC3)c2)nnc1[C@@H](C)NS(=O)(=O)/C=C/c1ccccc1 [Compound 146],121 to 122 °C,102%,12 nM,–
CCn1c(Oc2cccc(NS(C)(=O)=O)c2)nnc1[C@@H](C)NS(=O)(=O)c1ccc2ccccc2c1 [Compound 147],141 to 143 °C,103%,≤ 10 nM,–
CCn1c(Oc2cccc(N3CCN(C(C)C)CC3)c2)nnc1[C@@H](C)NS(=O)(=O)c1ccc2c(Cl)cccc2c1 [Compound 663],210 to 217 °C,–,≤ 10 nM,99.5%
CCn1c(Oc2cccc(N3CCN(C)CC3)c2)nnc1[C@@H](C)NS(=O)(=O)c1ccc2ccc(Cl)cc2c1 [Compound 665],197 to 201 °C,–,≤ 35 nM,100%
CCn1c(Oc2cccc(N3CCN(C)CC3)c2)nnc1[C@@H](C)NS(=O)(=O)c1ccc2cccc(Cl)c2c1 [Compound 666],143.5 to 144.5 °C,–,≤ 10 nM,97.9%

# Second part, the compound after the results:
melting point,inhibition at 10 µM (human Edg-1 (S1P1); [1]),IC50 (human Edg-1 (S1P1)),inhibition at 10 µM (human Edg-1 (S1P1); [2]),SMILES
188.5 to 192 °C,101%,–,–,CCn1c(Oc2ccc3cc[nH]c3c2)nnc1[C@@H](C)NS(=O)(=O)c1cccc(C(F)(F)F)c1 [Compound 135]
100 to 106 °C,96.5%,8.1 nM,–,CCn1c(Oc2ccc3cc[nH]c3c2)nnc1[C@@H](C)NS(=O)(=O)c1ccc(C(F)(F)F)cc1 [Compound 136]
173.5 to 177 °C,102%,≤ 10 nM,–,CCn1c(Oc2ccc(F)cc2)nnc1[C@@H](C)NS(=O)(=O)c1ccc2c(Cl)cccc2c1 [Compound 137]
167.5 to 169 °C,99.6%,≤ 10 nM,–,CCn1c(Oc2ccc(OC)cc2)nnc1[C@@H](C)NS(=O)(=O)c1ccc2c(Cl)cccc2c1 [Compound 138]
183 to 184 °C,98.1%,≤ 35 nM,–,CCn1c(Oc2cccc(N3CCN(C)CC3)c2)nnc1[C@@H](C)NS(=O)(=O)c1ccc(C(F)(F)F)cc1 [Compound 142]
150 to 152 °C,101%,≤ 35 nM,–,CCn1c(Oc2cccc(N3CCN(C)CC3)c2)nnc1[C@@H](C)NS(=O)(=O)c1cc(F)cc(Cl)c1C [Compound 145]
154.5 to 155.5 °C,102%,1.9 nM,–,CCn1c(Oc2cccc(NS(C)(=O)=O)c2)nnc1[C@@H](C)NS(=O)(=O)c1ccc2c(Cl)cccc2c1 [Compound 148]
212 to 214.5 °C,101%,7.8 nM,–,CCC(NS(=O)(=O)c1ccc(Cl)c(Cl)c1)c1nnc(Oc2ccc(C)cc2)n1CC (stereo not shown) [Compound 149]
218 to 221.5 °C,–,–,85.4%,CCn1c(Oc2cccc(N3CCN(C)CC3)c2)nnc1[C@@H](C)NS(=O)(=O)c1ccc2cc(Cl)ccc2c1 [Compound 664]
